Experimental data published in patent publication US8507545B2, “Cytotoxic T cell activator comprising EP4 agonist” (National University Corporation, Hamamatsu University …, priority 2007, dated 2013).

What was measured:
TRP-2-specific CTLs [1] = experiment: Activation of cytotoxic T cells in cervical lymph nodes after tape stripping (TRP-2 tetramer flow cytometry); type: in vivo, C57BL/6(B6) mice; conditions: for Ratio of TRP-2-specific CTLs: Example 1(1), cervical lymph nodes one week after application, relative to total mononucleocytes as 100
Protocol: (§1) The corneal layers of the auricles of C57BL/6(B6) mice were destroyed by repeating a stripping procedure using an adhesive tape in 10 cycles, and an antigen peptide or EP4 agonist was applied as a test substance. The antigen peptide used was a melanoma-specific antigen peptide (Accord K.K. Peptide Business Department; hereinafter abbreviated TRP-2) in solution in 70% ethanol; 10 μg was applied to one side of each auricle. The EP4 agonist used was 11α,15α,-dihydroxy-9-oxo-16-(3-methoxymethylphenyl)-17,18,19,20-tetranol-3,7-dithiaprost-13E-enoic acid (hereinafter abbreviated Compound A-(1)) in solution in a mixed solvent of acetone:olive oil=10:1; 20 μL of 100 μM solution was applied to one side of each auricle. One week after application of the test substance, the cervical lymph nodes were removed. The frequency of TRP-2-specific CTLs was determined relative to the total number of mononucleocytes in the cervical lymph nodes as 100 by a flowcytometric analysis (FACScaliber; Becton, Dickinson and Company.) with a tetramer (Medical & Biological Laboratories Co., Ltd.). Four experimental groups were established: (1) a group undergoing tape stripping (hereinafter abbreviated TS) alone, (2) a group undergoing TS followed by application of TRP-2, (3) a group undergoing TS followed by application of Compound A-(1), and (4) a group undergoing TS followed by application of TRP-2 and Compound A-(1).
Note that the melanoma-specific antigen peptide TRP-2 was synthesized on the basis of a partial sequence described in the aforementioned Non-patent Document 1 (SEQ ID NO. 1) (Accord K.K. Peptide Business Department).
The same procedures as Example 1(1) were followed except that the EP4 agonists used were 4-[(2-{(2R)-2-[(1E,3S)-4-(4-fluorophenyl)-3-hydroxybut-1-enyl]-5-oxopyrrolidin-1-yl}ethyl)sulfanyl]butanoic acid (hereinafter abbreviated Compound L-(1)) and 4-{[2-((1R,2R,3R)-3-hydroxy-2-{(1E,3S)-3-hydroxy-4-[3-(methoxymethyl)phenyl]but-1-enyl}-5-oxocyclopentyl)ethyl]sulfanyl}butanoic acid (hereinafter abbreviated Compound M-(1)); the action of each compound to activate cytotoxic T cells was evaluated. Four experimental groups were established: (1) a group undergoing TS alone, (2) a group undergoing TS followed by application of TRP-2, (3) a group undergoing TS followed by application of TRP-2 and Compound L-(1), and (4) a group undergoing TS followed by application of TRP-2 and Compound M-(1).

HSVgpB-specific CTLs = experiment: Activation of cytotoxic T cells in cervical lymph nodes after tape stripping (HSVgpB pentamer flow cytometry); type: in vivo, C57BL/6(B6) mice; conditions: Example 1(3), TS followed by application of HSVgpB and the EP4 agonist
Protocol: as §1
The same procedures as Example 1(1) were followed except that the antigen peptide used was the herpes simplex virus-specific antigen HSV glycoprotein B (hereinafter abbreviated HSVgpB), and that a flowcytometric analysis with a pentamer (ProImmune Company) was performed, and the action of each compound to activate cytotoxic T cells was evaluated. Five experimental groups were established: (1) a group undergoing TS alone, (2) a group undergoing TS followed by application of HSVgpB, (3) a group undergoing TS followed by application of HSVgpB and Compound A-(1), (4) a group undergoing TS followed by application of HSVgpB and Compound L-(1), and (5) a group undergoing TS followed by application of HSVgpB and Compound M-(1).
Note that the herpes simplex virus-specific antigen peptide HSVgpB was synthesized on the basis of the partial sequence shown by SEQ ID NO. 2 (Virology, Vol. 195, pp. 62-70, (1993)) (ProImmune Company).

TRP-2-specific CTLs [2] = experiment: Activation of cytotoxic T cells in isolated Langerhans cells co-cultured with lymphocytes; type: cell-based, C57BL/6(B6) mouse
Protocol: A given area of an auricle epidermal sheet was removed from the corneal layer of one auricle of each C57BL/6(B6) mouse, and trypsinized to yield an epidermal cell suspension. The epidermal cell suspension obtained was subjected to panning using an antibody specific for I-A^b antigen to isolate epidermal Langerhans cells. After each test substance (TRP-2 (concentration; 10 μg/mL) and Compound A-(1) (1 μM)) was added to the Langerhans cells isolated (cell density; 10^5 cells per mL), the cells were cultured with a medium (cRPMI1640 medium; Sigma-Aldrich Japan). Half a day later, the cells were co-cultured with splenocytic lymphocytes isolated from […] for 7 days. Subsequently, by a flowcytometric analysis (FACScaliber; Becton, Dickinson and Company.) using a tetramer (Medical & Biological Laboratories Co., Ltd.), the frequency of TRP-2-specific CTLs was determined relative to the total number of mononucleocytes in the medium as 100. Three experimental groups were established: (1) a group with no treatment, (2) a group with the addition of TRP-2, and (3) a group with the addition of both TRP-2 and Compound A-(1).

B16 melanoma cells = experiment: Melanoma growth suppressing action; type: in vivo, B6 mouse; conditions: for tumor diameter compared with the experimental group (1): FIG. 1
Protocol: The corneal layer was removed from the right auricle of each B6 mouse by TS in the same manner as Example 1, and test substances (TRP-2 and Compound A-(1)) were applied there; 2 weeks later, the left auricle was treated in the same manner. The test substances applied to both ears were used in the same combination; TRP-2 was applied at 10 μg for one side of each auricle, and Compound A-(1) was applied at 20 μl, of 100 μM solution for one side of each auricle. Four days after the above-described treatment, each mouse received 2×10^5 B16 melanoma cells (RIKEN's Cell Bank) by subcutaneous transplantation, and examined for tumor growth. Experimental groups were established as in Example 1(1) (5 animals in each group).
Tumor diameter (mm), as an index of tumor growth, was measured in each group at various days after inoculation of B16 melanoma cells; the results are shown in FIG. 1.

[3] = TS followed by application of Compound A-(1) alone, experimental group (3)
[4] = TS followed by application of TRP-2 and Compound A-(1), experimental group (4)

`COCc1cccc(C[C@H](O)/C=C/[C@H]2[C@H](O)CC(=O)[C@@H]2SCCCSCC(=O)O)c1` [Compound A-(1), 11α,15α,-dihydroxy-9-oxo-16-(3-methoxymethylphenyl)-17,18,19,20-tetranol-3,7-dithiaprost-13E-enoic acid] was tested, and the “Ratio of TRP-2-specific CTLs” value (TRP-2-specific CTLs [1]; TS followed by application of TRP-2 and Compound A-(1)) was 0.63, the “Ratio of TRP-2-specific CTLs” value (TRP-2-specific CTLs [1]; TS followed by application of the test substance alone) was 0.55 and the “ratio of TRP-2-specific CTLs in cervical lymph nodes compared with the group undergoing TS alone” value (TRP-2-specific CTLs [1]; TS followed by application of Compound A-(1)) was “increased”. For the same compound, the “Ratio of HSVgpB-specific CTLs” value (HSVgpB-specific CTLs) was 0.41, the “Ratio of TRP-2-specific CTLs” value (TRP-2-specific CTLs [2]; addition of both TRP-2 (10 μg/mL) and Compound A-(1) (1 μM), 7 days co-culture, relative to total mononucleocytes in the medium as 100) was 6.6 and the “action of inducing TRP-2-specific CTLs compared with TRP-2” value (TRP-2-specific CTLs [2]; isolated Langerhans cells) was “equivalent”. For the same compound, the tumor growth rates (B16 melanoma cells; [3]) was “decreased”, the “tumor diameter compared with the experimental group (1)” value (B16 melanoma cells; [3]) was “smaller” and the tumor growth rates (B16 melanoma cells; [4]) was “decreased”. The “take of B16 melanoma cells” value (B16 melanoma cells; TS followed by application of TRP-2 and Compound A-(1), experimental group (4), 5 animals) was “did not take in any animals” and the “tumor diameter compared with the experimental group (1)” value (B16 melanoma cells; [4]) was “smaller”.
